From patent US5328921A, “Aryl pyridinium compounds which are useful in treating shock” (American Cyanamid Company, priority 1992, dated 1994)
“And” between values parts separate entries of the source, which are not always exact repeats. Equal entries are not always repeated. Structures can show the parent of a compound that is named as a salt.

Tests used:
PAF receptor = molecular target: T1, PAF receptor (Oryctolagus cuniculus, UniProt G1TEI7); test: In vitro PAF antagonism: inhibition of PAF induced platelet aggregation in rabbit platelet rich plasma; assay type: cell-based, rabbit (male New Zealand White); details: rabbit PRP; for % INH (% of inhibition of PAF induced platelet aggregation): Dose 1.00E-05 M
T1 construct: centrifuged at 800 rpm for 10-15 minutes at room temperature to recover the platelet rich plasma (PRP); endogenous in cells; host or cells: rabbit platelets (platelet rich plasma from citrated blood of male New Zealand White rabbits)
Method: Test compounds are evaluated as PAF receptor antagonists in vitro by measuring inhibition of PAF (platelet activating factor) induced platelet aggregation. Platelet aggregation is measured by a modification of the method described in A. Wissnet, et. al., J. Med. Chem., 27 1174, 1984.
Approximately 120-240 ml of blood is collected by cardiac puncture from unanesthetized male New Zealand White rabbits (Whaley's Summit View Farms, Belvedere, N.J.) with the use of 3.2% sodium citrate anticoagulant (1 part of citrate/10 parts of blood). All syringes and pipers are plastic. The blood is gently mixed and immediately centrifuged at 800 rpm for 10-15 minutes at room temperature to recover the platelet rich plasma (PRP). Platelet poor plasma (PPP) is prepared by centrifuging PRP at 2800 rpm for 10 minutes at room temperature.
Dilutions (113000) of PRP in Isoton, diluent are made and platelet counts are determined on a Coulter Thrombocounter which is standardized with platelet reference standards (Interscience Platelet Control, Portland, Oreg.). PRP platelet counts are adJusted to approximately 400,000-500,000 platelets/11 by the addition of PPP.
L-PAF (Platelet Activating Factor) is obtained from Calbiochem. A stock solution of 1-2 E-3M is prepared in 10% ethanol in water or 100% methanol and serial working dilutions are made using saline. E-3M stock solutions of test compounds are prepared in 100% methanol and serially diluted in PBS. Sonication of samples before testing in biological screens assists in the solubility of compounds in the liquid medium. All solutions are made up in plastic tubes, stored on ice and protected from heat and light. Solutions are prepared fresh or frozen at -20° C. and used within 48 hours.
Incubation mixtures consisted of 400 11 PRP, 50 11 of saline diluent or test compound and 50 11 of PAF agohist. More specifically, 40011 of PRP is stabilized in a cuvette for 1-2 minutes at 37° C. in the aggregometer to achieve a stable baseline, then 50 11 of saline or test compound is added and incubated for 5 minutes before addition of the challenge concentration of PAF. A submaximal concentration is determined from the dose response curve for PAF for that experiment. In general, the challenge concentration is 5E-8 or 1E-7M. Aggregation is monitored for 5 minutes. Samples containing test compound or diluent are run simultaneously for comparison. Test compounds are initially evaluated at a screening concentration of 1E-SM.
The recording equipment consists of a dual channel Chronolog aggregometer connected to a dual channel 10MV full scale deflection Omniscribe chart recorder (Houston Instruments). The chart recorder is calibrated daily with the use of a suspension of Bio-Rad latex beads (S-X 12 400 mesh) which has a density slightly greater than rabbit PRP. The bead suspension is used to set the 0% light transmission mark and clear water is used to set the 100% light transmission mark. These limits defined a full scale deflection. The aggregation traces are analyzed by a digitizing method (C. Kohler and B. Zoltan, J. Pharm. Methods, 12, 113, 1984) with x, y coordinate data stored in a computer file. A suitable program computes parameters of interest such as the magnitude of aggregation.

[1] = test system: PAF induced lethality in mice; test: PAF induced lethality in mice; assay type: in vivo; details: 0.5 mg/kg IP 1/2 hour before lethal PAF I.V. challenge, alive after 2 hours, control (saline) 10; for responders at 0.5 mg/kg: Mus musculus, read-out: % Survival
Method: PAF given I.V. to mice causes an immediate hypotensive shock leading to death in 1 hour or less. Compounds are given intraperitoneally at 1/2 hour prior to the PAF challenge. Animals alive after 2 hours are counted and the activity of test compounds expressed as survival corrected for any control (saline treated) animals which survived the PAF challenge.

T1 sequence (G1TEI7 1-342): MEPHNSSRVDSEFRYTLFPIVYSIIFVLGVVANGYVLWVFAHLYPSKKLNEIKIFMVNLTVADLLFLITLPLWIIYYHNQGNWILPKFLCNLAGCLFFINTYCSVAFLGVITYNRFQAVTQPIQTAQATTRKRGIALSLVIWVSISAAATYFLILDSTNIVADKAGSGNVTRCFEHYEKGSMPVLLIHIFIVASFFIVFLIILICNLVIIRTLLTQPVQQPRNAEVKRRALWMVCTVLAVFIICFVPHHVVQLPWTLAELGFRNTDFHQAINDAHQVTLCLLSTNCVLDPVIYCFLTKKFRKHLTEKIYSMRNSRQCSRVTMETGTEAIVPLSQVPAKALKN

IC50 (PAF receptor; PAF challenge 5.00E-08 M)	Compound	responders at 0.5 mg/kg [1]	further results
	CCCCCCCCCCCCCCOc1ccc(CN(Cc2ccc[n+](C)c2)C(C)=O)cc1 [3-[[Acetyl[[4-(tetradecyloxy)phenyl]methyl]amino]-methyl]-1-methylpyridinium iodide]	38%	IC50 (PAF receptor; PAF challenge 1.00E-08 M): 14 µM
	CCCCCCCCCCCCCCOc1ccc(CN(Cc2cccc[n+]2CC)C(C)=O)cc1 [2-[[Acetyl[[4-(tetradecyloxy)phenyl]methyl]amino]-methyl]-1-ethylpyridiniumiodide]		IC50 (PAF receptor; PAF challenge 1.00E-07 M): 13 µM
	CCCCCCCCCCCCCCOc1ccc(CN(C(=O)c2ccc[n+](CCC)c2)c2ccccc2)cc1 [3-[[Phenyl[[4-(tetradecyloxy)phenyl]methyl]amino]-carbonyl]-1-propylpyridinium iodide]	64%	
	CCCCCCCCCCCCCCOc1ccc(CN(C(=O)c2ccc[n+](C)c2)c2ccccc2)cc1 [1-Methyl-3-[[phenyl[[4-(tetradecyloxy)phenyl]methyl]-amino]carbonyl]pyridinium iodide]	69%	
15 µM	CCCCCCCCCCCCCCOc1ccc(CC(=O)NCCc2cccc[n+]2C)cc1 [1-Methyl-2-[2-[[[4-(tetradecyloxy)phenyl]acetyl]-amino]ethyl]pyridinium iodide]		
6.8 µM	CCCCCCCCCCCCCCOc1ccc(C(=O)N(Cc2ccc[n+](C)c2)C(C)=O)cc1 [3-[[Acetyl[4-(tetradecyloxy)benzoyl]amino]methyl]-1-methylpyridinium iodide]		
1 µM	CCCCCCCCCCCCCCOc1ccc(CN(Cc2cc[n+](C)cc2)C(C)=O)cc1 [4-[[Acetyl[[4-(tetradecyloxy)phenyl]methyl]amino]-methyl]-1-methylpyridinium iodide]		
280 µM	CCCCCCCCCCCCCCCCOc1ccc(OCC(=O)N(Cc2cccc[n+]2C)C(C)=O)cc1 [2-[[Acetyl[[4-(hexadecyloxy)phenoxy]acetyl]amino]-methyl]-1-methylpyridinium iodide]		
	CCCCCCCOc1ccc(C(=O)N(Cc2cccc[n+]2C)C(C)=O)cc1OCCCCCCC [2-[[Acetyl[3,4-bis(heptyloxy)benzoyl]amino]methyl]-1-methylpyridinium iodide]	45%	
	CCCCCCCCCCCCCCOc1ccc(N(Cc2ccc[n+](C)c2)C(C)=O)cc1 [3-[[Acetyl[4-(tetradecyloxy)phenyl]amino]methyl]-1-methylpyridinium iodide]	7%	
60 µM	CCCCCCCCCCCCCCOc1ccc(CNC(=O)c2cc[n+](C)cc2)cc1 [1-Methyl-4-[[[[4-(tetradecyloxy)phenyl]methyl]amino]-carbonyl]pyridinium iodide]		
	CCCCCCCCCCCCCCOc1ccc(COC(=O)N(Cc2cccc[n+]2C)C(C)=O)cc1 [2-[[Acetyl[[[4-(tetradecyloxyphenyl]methoxy]-carbonyl]amino]methyl]-1-methylpyridinium iodide]	40%	
	CCCCCCCCCCCCCCOc1ccc(C(=O)N(Cc2cccc[n+]2C)S(C)(=O)=O)cc1 [1-Methyl-2-[[(methylsulfonyl)[4-(tetradecyloxy)-benzoyl]amino]methyl]pyridinium salt with trifluoromethanesulfonic acid (1:1)]	88%	
7.2 µM and 5.6 µM	CCCCCCCCCCCCCCCCOc1ccc(OCC(=O)NCc2cccc[n+]2CC)cc1 [1-Ethyl-2-[[[[4-(hexadecyloxy)phenoxy]acetyl]amino]-methyl]pyridinium iodide]		
	CCCCCCCCCCCCCCOc1ccc(C(=O)NCCc2cccc[n+]2C)cc1 [1-Methyl-2-[2-[[4-(tetradecyloxy)benzoyl]amino]-ethyl]pyridinium iodide]		IC50 (PAF receptor; PAF challenge 1.00E-08 M): 14 µM
1.5 µM	CCCCCCCCCCCCCCOc1ccc(C(=O)N(Cc2cccc[n+]2C)C(=O)c2ccccc2OC)cc1 [2-[[(2-Methoxybenzoyl)[4-(tetradecyloxy)]benzoyl]-amino]methyl]-1-methylpyridinium iodide]		% INH (% of inhibition of PAF induced platelet aggregation) (PAF receptor; PAF challenge 5.00E-08 M): 0%
	CCCCCCCCCCCCCCOc1ccc(C(=O)NCc2cccc[n+]2C)cc1OCCCCCCCCCCCCCC [1-Methyl-2-[[[3,4-bis(tetradecyloxy)benzoyl]amino]-methyl]pyridinium iodide]	0%	
	CCCCCCCCCCCCCCOc1ccc(C(=O)N(Cc2cccc[n+]2C)C(C)=O)cc1OCCCCCCCCCCCCCC [2-[[Acetyl[3,4-bis(tetradecyloxy)benzoyl]amino]-methyl]-1-methylpyridinium iodide]	36%	
	2-[[Acetyl[[4-(tetradecyloxy)-benzoyl]methyl]amino]methyl]-1-ethylpyridinium iodide		% Survival [1]: 40%
	CCCCCCCCCCCCCCOc1ccc(CN(Cc2cccc[n+]2C)S(C)(=O)=O)cc1 [1-Methyl-2-[[(methylsulfonyl)[[4-(tetradecyloxy)-phenyl]methyl]amino]methyl]pyridinium iodide]	55%	
20 µM	CCCCCCCCCCCCCCOc1ccc(C(=O)N(Cc2ccc[n+](C)c2)C(C)=O)cc1C(C)(C)C [3-[[Acetyl[3-(1,1-dimethylethyl)-4-(tetradecyloxy)-benzoyl]amino]methyl]-1-methylpyridinium iodide]		
2.7 µM and 3.2 µM	CCCCCCCCCCCCCCCCOc1ccc(OCC(=O)NCCc2cccc[n+]2CC)cc1 [1-Ethyl-2-[2-[[[4-(hexadecyloxy)phenoxy]acetyl]-amino]ethyl]pyridinium iodide]		IC50 (PAF receptor; PAF challenge 1.00E-07 M): 4.64 µM

Compound	IC50 (PAF receptor; PAF challenge 5.00E-08 M)	responders at 0.5 mg/kg [1]	further results
CCCCCCCCCCCCCCOc1cc(C(=O)N(Cc2cccc[n+]2C)C(C)=O)ccc1OC [2-[[Acetyl[4-methoxy-3-(tetradecyloxy)benzoyl]-amino]methyl]-1-methylpyridinium iodide]	160 µM	21%	
CCCCCCCCCCCCCCOc1ccc(C(=O)N(Cc2cccc[n+]2CC)C(C)=O)cc1OC.[I-] [2-[[Acetyl[3-methoxy-4-(tetradecyloxy)benzoyl]amino]-methyl]-1-ethylpyridinium iodide]	0.0703 µM and 0.24 µM	29%	% INH (% of inhibition of PAF induced platelet aggregation) (PAF receptor; PAF challenge 5.00E-08 M): 95%
CCCCCCCCCCCCCCOc1ccccc1CN(Cc1cccc[n+]1C)C(C)=O [2-[[Acetyl[[2-(tetradecyloxy)phenyl]methyl]amino]-methyl]-1-methylpyridinium iodide]	43 µM	23%	
CCCCCCCCCCCCCCOc1ccc(C(=O)N(Cc2cccc[n+]2C)C(C)=O)cc1C(C)(C)C [2-[[Acetyl[3-(1,1-dimethylethyl)-4-(tetradecyloxy)-benzoyl]amino]methyl]-1-methylpyridinium iodide]	0.0215 µM	60%	IC50 (PAF receptor; PAF challenge 1.00E-07 M): 0.0141 µM and 0.036 µM
CCCCCCCCCCCCCCOc1ccc(C(=O)N(Cc2cccc[n+]2C)C(C)=O)cc1.[I-] [2-[[Acetyl[4-(tetradecyloxy)benzoyl]amino]methyl]-1-methylpyridinium iodide]	0.86 µM and 0.7 µM and 0.96 µM and 1.3 µM	27%	% INH (% of inhibition of PAF induced platelet aggregation) (PAF receptor; PAF challenge 5.00E-08 M): 0%
CCCCCCCCCCCCCCOc1ccc(C(=O)N(Cc2cccc[n+]2C)C(C)=O)cc1OC [2-[[Acetyl[3-methoxy-4-(tetradecyloxy)benzoyl]amino]-methyl]-1-methylpyridinium iodide]	0.0636 µM	43%	
CCCCCCCCCCCCCCOc1ccc(C(=O)N(Cc2cccc[n+]2Cc2ccccc2)C(C)=O)cc1 [2-[[Acetyl[4-(tetradecyloxy)benzoyl]amino]methyl]-1-(phenylmethyl)pyridinium bromide]	300 µM	0%	
